Results: US9840532B2, “5′-substituted nucleoside compounds” (Eli Lilly and Company, priority 2015, dated 2017)

Experiments:
[1] = test system: PRMT5-dependent alternative splicing of MDM4 in A375 melanoma cells; test: MDM4 Exon5/6 qPCR Assay in A375 Tumor Cells; assay type: cell-based; conditions: Homo sapiens, A-375, 72 hr, Mean ± SEM
Protocol: Culture A375 tumor cells (ATCC), a melanoma cancer cell line, to 70%-90% confluence in T150 flasks with the growth medium (DMEM; HYCLONE™ #SH30022 with 10% FBS; GIBCO® 10082-147 or equivalent). Treat the cells with standard trypsin/EDTA treatment for 3 min and aspirate and wash with PBS to release the adherent cells from the culture flask. Seed the cells into a 96 well plate (Costar 3596) at 5000/well in growth medium (90 μL). Incubate the plate overnight at 37° C. and 5% CO2 and treat the cells with test compound at serial dilutions ([…], final DMSO addition of 0.2% yield) for 72 hr. Measure activity relative to maximum (2.0 μM of Example 2 and minimum (0.2% DMSO) controls.
On Day 5 after incubation, remove the medium from the culture plates and wash the cells twice with cold PBS (150 μL/well). Prepare Lysis Working Reagent from the TAQMAN® Gene Expression Cells-to-CT Kit (INVITROGEN™ cat. # AM1729) by dilution of DNAse 1 into Lysis Solution at 1/100. Add Lysis Working Reagent (50 μL/well) to the cell plates, mix well, and incubate at room temperature for 5 min Add kit stop solution (5 μL) to each well, mix the wells, and incubate for 2 min at room temperature. Prepare Reverse Transcriptase Master Mix in the following volume ratios; RT buffer: Nuclease-free water: RT Enzyme at 62.5:31.25:6.25. Add RT mix (48 μL/well) to each well of a 96-well NUNC™ plate (THERMO SCIENTIFIC™ #260860). Add RT mix (20 μL) and each cell lysate sample (5 μL) into a 384 PCR plate (Clear Optical Reaction Plate, cat. #4309849, APPLIED BIOSYSTEMS®) quadrant 1 and add a second addition of RT Mix and cell lysate to quadrant 3. For the RT reaction, seal the plates and then place them in a thermal cycler set at 37° C. for 60 min; 95° C. for 5 min; stop at 4° C. For qPCR, prepare MDM4 exon 5 primers (Life Technologies Hs00967240-ml) and exon 6 primers (Life Technologies Hs00967242-ml) separately in the following volume ratios of RT mix: H2O: exon probe at 10:6:1. Add Exon 5 (17 μL) to odd columns of a 384 PCR plate and add exon 6 (17 μL) to the even columns. Add cDNA (3 μL, from the RT plate) by quadrant stamping to each well of the qPCR plate containing the 17 μL exon primer solution. In this manner, perform qPCR for both exons on cDNAs from a single RT reaction on an individual cell lysate. Seal the plates, spin, and place on a real-time PCR instrument (Life Technologies ViiA7 Real-Time PCR). […]
Retrieve CT data from the real-time PCR reader and perform the following calculations, where “CPD” is the value from compound-treated samples, and “DMSO” is the minimum control sample, using an Excel template: (Exon 6 CT CPD−Exon 6 CT DMSO)−(Exon 5 CT CPD−Exon 5 CT DMSO)=ΔCT 2^(−ΔCT)=Fold Change […]

[2] = test system: A375 cells; test: Protocol Proliferation 7-day (CELL TITER-GLO); assay type: cell-based; conditions: Homo sapiens, A-375, 168 h, 7 days, Mean ± SEM
Protocol: The purpose of this assay is to measure the ability of test compounds to inhibit proliferation of cancer cells.
On day 1, plate A375 cells (ATCC, DMEM high glucose/10% Hi FBS) at 250 cells/well (100 μL/well) in a 96-well assay plate (BD Falcon 35-3219). Incubate the plates in a 37° C. incubator (5% CO2) for 18-24 hr. On day 2, prepare and serially dilute test compounds in medium (1:2 10-point serial dilution) from compound stock solutions (10 mM in 100% DMSO). Add 10 μL of serial diluted test compounds to cell plates (0.2% DMSO final concentration). Add 10 μL of reference compound (Example 1) to column 1 of cell plates (20 μM final, 0.2% DMSO). Incubate cell plates at 37° C./5% CO2 for 7 days. On day nine, thaw the CELL TITER-GLO® (Promega #G7571) buffer and equilibrate to room temperature prior to use. Also, equilibrate the lyophilized CELL TITER-GLO® substrate to room temperature prior to use. Transfer CELL TITER-GLO® buffer to an amber substrate bottle to reconstitute the lyophilized enzyme/substrate mixture to form the CELL TITER-GLO® reagent. Equilibrate the cell plate(s) to room temperature for […] Gently remove media in cell plates by flicking and blotting on a stack of paper towels. Add CELL TITER-GLO® reagent (25 μL) to each well. Incubate plates for […] at room temperature before reading. Measure luminescence using PERKIN-ELMER® ENVISION® Multi-label Plate Reader. Analyze this luminescence data by a 4-parameter curve fit using Activity Base, to yield cell proliferation IC50 values.

With `Nc1ncnc2c1ccn2[C@@H]1O[C@H]([C@H](O)c2ccc(Cl)cc2)[C@@H](O)[C@H]1O` [Example 1, (2R,3R,4S,5R)-2-(4-Aminopyrrolo[2,3-d]pyrimidin-7-yl)-5-[(R)-(4-chlorophenyl)-hydroxy-methyl]tetrahydrofuran-3,4-diol] the EC50 [1] was 16.8 nM and the IC50 [2] was 10.8 nM.
For `Nc1ncnc2c1ccn2[C@@H]1O[C@H]([C@H](O)c2ccccc2)[C@@H](O)[C@H]1O` [Example 2, (2R,3R,4S,5R)-2-(4-Aminopyrrolo[2,3-d]pyrimidin-7-yl)-5[(R)-hydroxy(phenyl)methyl]tetrahydrofuran-3,4-diol], the EC50 [1] was 36.7 nM and the IC50 [2] was 31.5 nM.
`C[C@@](O)(c1ccc(Cl)cc1)[C@H]1O[C@@H](n2ccc3c(N)ncnc32)[C@H](O)[C@@H]1O` [Example 3, (2R,3R,4S,5S)-2-(4-Aminopyrrolo[2,3-d]pyrimidin-7-yl)-5-[(1R)-1-(4-chlorophenyl)-1-hydroxy-ethyl]tetrahydrofuran-3,4-diol] was tested, and the EC50 [1] was 42.4 nM and the IC50 [2] was 44 nM.
